# Test: Henry solubility constant Hcp at 298.15 K (mol/(m3 Pa))
# Details: reference: Atlas et al. (1982)
row,SMILES,Henry solubility constant Hcp
1,"ClC(Cl)=C(c1ccc(Cl)cc1)c1ccc(Cl)cc1 [1,1-dichloro-2,2-bis-(4-chlorophenyl)-ethene]",0.0081
2,"Clc1ccc(Cl)c(-c2cccc(Cl)c2Cl)c1 [2,2',3,5'-tetrachlorobiphenyl]",0.013
3,"Clc1ccccc1-c1cccc(Cl)c1Cl [2,2',3-trichlorobiphenyl]",0.012
4,"Clc1cc(Cl)c(-c2ccccc2Cl)c(Cl)c1 [2,2',4,6-tetrachlorobiphenyl]",0.013
5,"Clc1ccc(Cl)c(-c2cc(Cl)ccc2Cl)c1 [2,2',5,5'-tetrachlorobiphenyl]",0.011
6,"Clc1ccc(Cl)c(-c2ccccc2Cl)c1 [2,2',5-trichlorobiphenyl]",0.0099
7,"Clc1cccc(-c2cccc(Cl)c2Cl)c1 [2,3,3'-trichlorobiphenyl]",0.012
8,"Clc1ccc(-c2ccc(Cl)c(Cl)c2Cl)cc1 [2,3,4,4'-tetrachlorobiphenyl]",0.012
9,"Clc1ccc(-c2cc(Cl)ccc2Cl)cc1 [2,4',5-trichlorobiphenyl]",0.011
10,"Clc1ccc(-c2ccccc2Cl)cc1 [2,4'-dichlorobiphenyl]",0.01
11,"Clc1ccc(-c2ccc(Cl)c(Cl)c2)cc1 [3,4,4'-trichlorobiphenyl]",0.012
12,ClC1=C(Cl)[C@]2(Cl)[C@@H]3[C@@H](Cl)[C@@H](Cl)C[C@@H]3[C@@]1(Cl)C2(Cl)Cl [cis-chlordane],0.011
13,ClC1=C(Cl)[C@]2(Cl)[C@H]3[C@H](Cl)[C@@H](Cl)C[C@H]3[C@@]1(Cl)C2(Cl)Cl [trans-chlordane],0.0074
14,"ClC1C(Cl)C(Cl)C(Cl)C(Cl)C1Cl (stereo not drawn) [α-1,2,3,4,5,6-hexachlorocyclohexane]",0.42

# Reference: Sander's compilation of Henry's law constants (doi:10.1021/es00099a010)
